{
  "source": "paper PMC8044163",
  "about": "“Vitamin D and lumisterol derivatives can act on liver X receptors (LXRs)” (Scientific Reports, 2021)",
  "system": "murine dermal fibroblasts",
  "experiment": "RNA-Seq of newborn murine dermal fibroblasts",
  "format": "cell-based, mouse",
  "details": "10^−7 M, 24 h",
  "procedure": "All animal studies followed guidelines outlined by the NIH Guide for the Care and Use of Laboratory Animals and protocols were approved by the Institutional Animal Care and Use Committee at the NIEHS or the UAB. […] Skin samples from newborn C57BL/6 mice were collected at the NIEHS. Dermal fibroblasts were isolated from the skin of newborn mice, 1–2 day old. Briefly, we followed the protocols described previously. The skin was washed in PBS, cut into smaller pieces and incubated in 2.4 U/ml of dispase II (Roche) overnight at 4 °C. The dermis was separated from the epidermis and incubated in 0.1% collagenase (Roche) at 4 °C overnight. […] Single cell suspension was prepared by pipetting and draining through a cell strainer. After centrifugation, cell pellets were suspended in DMEM medium containing 10% charcoal-stripped fetal bovine serum (cFBS), mouse fibroblasts growth factor (FGF) and 1% antibiotic, and inoculated into tissue culture dishes (Midwest Scientific, TPP). Cells, in early passages, from different mice were pooled together to provide representative samples for experiments. Fibroblasts were cultured in Petri dishes (10 cm in diameter) in DMEM and 10% cFBS and triplicate semi-confluent cultures were treated as described.\nTriplicate cultures of murine fibroblasts were used for RNA isolation (RNAeasy Micro kit, Qiagen), the RNA samples were combined for each condition and at least 200 ng of RNA for each sample was used to create libraries for RNA sequencing by BGI Americas Corporation Service (Cambridge, MA)[67]. Quality of RNA and its concentration were determined using Agilent 2100.\nThe raw sequence FASTQ files were aligned to Gencode’s GRCm38 p4 Release M11 genome using STAR version 2.5.4b (parameters used: –outReadsUnmapped Fastx; –outSAMtype BAM SortedByCoordinate; –outSAMattributes All; –outFilterIntronMotifs RemoveNoncanonicalUnannotated)[69]. The abundance of transcripts was calculated from the alignments using Cufflinks version 2.2.1 (parameters used: –G; –L; –library-type fr-firststrand). Samples were merged using default parameters with Cuffmerge[70],[71]. The differential expression was calculated using Cuffdiff’s default parameters. The raw data have been deposited at the NCBI GEO (GSE145818).",
  "data": [
    {"smiles": "CC(C)CCC[C@](C)(O)[C@H]1CC[C@H]2[C@@H]3CC=C4C[C@@H](O)CC[C@]4(C)[C@H]3CC[C@@]21C", "note": "[20(OH)C, 20-hydroxycholesterol, reference compound]", "values": [
      {"measurement": "Adh7 expression level", "result": 0.7754},
      {"measurement": "Adh7 log2(fold_change) vs control", "result": 1.595},
      {"measurement": "Aqp11 expression level", "result": 0.8073},
      {"measurement": "Aqp11 log2(fold_change) vs control", "result": 1.853},
      {"measurement": "Arid3b expression level", "result": 0.9108},
      {"measurement": "Arid3b log2(fold_change) vs control", "result": -1.9},
      {"measurement": "Bicd1 expression level", "result": 0.39},
      {"measurement": "Bicd1 log2(fold_change) vs control", "result": -2.453},
      {"measurement": "Btc expression level", "result": 1.112},
      {"measurement": "Btc log2(fold_change) vs control", "result": 2.1992},
      {"measurement": "Car9 expression level", "result": 1.738},
      {"measurement": "Car9 log2(fold_change) vs control", "result": -2.435},
      {"measurement": "Cbs expression level", "result": 0.5333},
      {"measurement": "Cbs log2(fold_change) vs control", "result": -1.867},
      {"measurement": "Ccl4 expression level", "result": 0.1695},
      {"measurement": "Ccl4 log2(fold_change) vs control", "result": -2.322},
      {"measurement": "Cd68 expression level", "result": 2.992},
      {"measurement": "Cd68 log2(fold_change) vs control", "result": 1.391},
      {"measurement": "Cd200 expression level", "result": 0.446},
      {"measurement": "Cd200 log2(fold_change) vs control", "result": -1.664},
      {"measurement": "Cherp expression level", "result": 31.8463},
      {"measurement": "Cherp log2(fold_change) vs control", "result": -2.536},
      {"measurement": "Clec2g expression level", "result": 0},
      {"measurement": "Clec2g log2(fold_change) vs control", "result": "-inf"},
      {"measurement": "Cnnm4 expression level", "result": 3.864},
      {"measurement": "Cnnm4 log2(fold_change) vs control", "result": -3.699},
      {"measurement": "Cox15 expression level", "result": 14.0674},
      {"measurement": "Cox15 log2(fold_change) vs control", "result": 1.269},
      {"measurement": "Cpa2 expression level", "result": 0.3139},
      {"measurement": "Cpa2 log2(fold_change) vs control", "result": -2.322},
      {"measurement": "Ctrl expression level", "result": 0.4557},
      {"measurement": "Ctrl log2(fold_change) vs control", "result": -1.16},
      {"measurement": "Dcun1d1 expression level", "result": 3.938},
      {"measurement": "Dcun1d1 log2(fold_change) vs control", "result": -1.746},
      {"measurement": "Defb42 expression level", "result": 0.3618},
      {"measurement": "Defb42 log2(fold_change) vs control", "result": -1.335},
      {"measurement": "Dtx1 expression level", "result": 0.6172},
      {"measurement": "Dtx1 log2(fold_change) vs control", "result": -1.429},
      {"measurement": "Ehf expression level", "result": 0.3171},
      {"measurement": "Ehf log2(fold_change) vs control", "result": -1.391},
      {"measurement": "Ercc2 expression level", "result": 15.1049},
      {"measurement": "Ercc2 log2(fold_change) vs control", "result": -3.489},
      {"measurement": "Erh expression level", "result": 1.52},
      {"measurement": "Erh log2(fold_change) vs control", "result": -2.047},
      {"measurement": "Fmnl1 expression level", "result": 0.0589},
      {"measurement": "Fmnl1 log2(fold_change) vs control", "result": -3.9854},
      {"measurement": "Gys2 expression level", "result": 0},
      {"measurement": "Gys2 log2(fold_change) vs control", "result": "-inf"},
      {"measurement": "Hist1h2ab expression level", "result": 1.148},
      {"measurement": "Hist1h2ab log2(fold_change) vs control", "result": 2},
      {"measurement": "Hist1h2bg expression level", "result": 0.5658},
      {"measurement": "Hist1h2bg log2(fold_change) vs control", "result": -2},
      {"measurement": "Hist1h2bh expression level", "result": 0},
      {"measurement": "Hist1h2bh log2(fold_change) vs control", "result": "-inf"},
      {"measurement": "Hist1h4c expression level", "result": 0.4039},
      {"measurement": "Hist1h4c log2(fold_change) vs control", "result": -1},
      {"measurement": "Isl1 expression level", "result": 0.3429},
      {"measurement": "Isl1 log2(fold_change) vs control", "result": -1.227},
      {"measurement": "Krt19 expression level", "result": 12.2793},
      {"measurement": "Krt19 log2(fold_change) vs control", "result": 1.279},
      {"measurement": "Larp1b expression level", "result": 3.613},
      {"measurement": "Larp1b log2(fold_change) vs control", "result": -2.853},
      {"measurement": "Lhx6 expression level", "result": 2.203},
      {"measurement": "Lhx6 log2(fold_change) vs control", "result": -2.404},
      {"measurement": "Lsm5 expression level", "result": 0.8846},
      {"measurement": "Lsm5 log2(fold_change) vs control", "result": -1.59},
      {"measurement": "M1ap expression level", "result": 2.484},
      {"measurement": "M1ap log2(fold_change) vs control", "result": 2.0059},
      {"measurement": "Med9os expression level", "result": 0.3191},
      {"measurement": "Med9os log2(fold_change) vs control", "result": -2.7},
      {"measurement": "Nckipsd expression level", "result": 8.765},
      {"measurement": "Nckipsd log2(fold_change) vs control", "result": 1.073},
      {"measurement": "Nr3c2 expression level", "result": 0.1285},
      {"measurement": "Nr3c2 log2(fold_change) vs control", "result": -3.098},
      {"measurement": "Nr6a1 expression level", "result": 0.3735},
      {"measurement": "Nr6a1 log2(fold_change) vs control", "result": -2.304},
      {"measurement": "Ntrk3 expression level", "result": 0.3696},
      {"measurement": "Ntrk3 log2(fold_change) vs control", "result": -2.33},
      {"measurement": "Parvg expression level", "result": 0.09605},
      {"measurement": "Parvg log2(fold_change) vs control", "result": -3.946},
      {"measurement": "Pde4dip expression level", "result": 20.5427},
      {"measurement": "Pde4dip log2(fold_change) vs control", "result": -7.578},
      {"measurement": "Psd4 expression level", "result": 0.1792},
      {"measurement": "Psd4 log2(fold_change) vs control", "result": -3.129},
      {"measurement": "Ptpa expression level", "result": 149.828},
      {"measurement": "Ptpa log2(fold_change) vs control", "result": 1.1778},
      {"measurement": "Ptpn6 expression level", "result": 1.723},
      {"measurement": "Ptpn6 log2(fold_change) vs control", "result": -2.798},
      {"measurement": "Rnu3a expression level", "result": 0},
      {"measurement": "Rnu3a log2(fold_change) vs control", "result": "-inf"},
      {"measurement": "Rpph1 expression level", "result": 0.6576},
      {"measurement": "Rpph1 log2(fold_change) vs control", "result": -1},
      {"measurement": "Rsad1 expression level", "result": 1.413},
      {"measurement": "Rsad1 log2(fold_change) vs control", "result": -1.15},
      {"measurement": "Saa1 expression level", "result": 0.1908},
      {"measurement": "Saa1 log2(fold_change) vs control", "result": -2.322},
      {"measurement": "Samd12 expression level", "result": 0.5476},
      {"measurement": "Samd12 log2(fold_change) vs control", "result": -2.717},
      {"measurement": "Scn8a expression level", "result": 0.2978},
      {"measurement": "Scn8a log2(fold_change) vs control", "result": -1.43},
      {"measurement": "Sgca expression level", "result": 0.3806},
      {"measurement": "Sgca log2(fold_change) vs control", "result": -1.697},
      {"measurement": "Slc15a4 expression level", "result": 13.0176},
      {"measurement": "Slc15a4 log2(fold_change) vs control", "result": -2.132},
      {"measurement": "Slc16a5 expression level", "result": 0.4564},
      {"measurement": "Slc16a5 log2(fold_change) vs control", "result": -1.015},
      {"measurement": "Snhg9 expression level", "result": 7.471},
      {"measurement": "Snhg9 log2(fold_change) vs control", "result": -1.322},
      {"measurement": "St7 expression level", "result": 21.7063},
      {"measurement": "St7 log2(fold_change) vs control", "result": -1.667},
      {"measurement": "Stmn1 expression level", "result": 6.2905},
      {"measurement": "Stmn1 log2(fold_change) vs control", "result": 2.02},
      {"measurement": "Susd1 expression level", "result": 2.158},
      {"measurement": "Susd1 log2(fold_change) vs control", "result": 1.637},
      {"measurement": "Syt8 expression level", "result": 0.2562},
      {"measurement": "Syt8 log2(fold_change) vs control", "result": -3.638},
      {"measurement": "Syt12 expression level", "result": 1.318},
      {"measurement": "Syt12 log2(fold_change) vs control", "result": -1.636},
      {"measurement": "Tldc2 expression level", "result": 0},
      {"measurement": "Tldc2 log2(fold_change) vs control", "result": "-inf"},
      {"measurement": "Tnnc2 expression level", "result": 0.1558},
      {"measurement": "Tnnc2 log2(fold_change) vs control", "result": -2.361},
      {"measurement": "Unc5c expression level", "result": 0.4963},
      {"measurement": "Unc5c log2(fold_change) vs control", "result": -1.133},
      {"measurement": "Wdr17 expression level", "result": 0.677},
      {"measurement": "Wdr17 log2(fold_change) vs control", "result": -1.73},
      {"measurement": "Zbtb18 expression level", "result": 5.289},
      {"measurement": "Zbtb18 log2(fold_change) vs control", "result": -3.07},
      {"measurement": "Zfp618 expression level", "result": 2.236},
      {"measurement": "Zfp618 log2(fold_change) vs control", "result": -1.093},
      {"measurement": "number of genes downregulated, FC ≥ 2", "result": 498},
      {"measurement": "number of genes upregulated, FC ≥ 2", "result": 564},
      {"measurement": "number of genes solely downregulated", "setting": "FC ≥ 2", "result": "109 (10.3%)"},
      {"measurement": "number of genes solely upregulated", "setting": "FC ≥ 2", "result": "291 (19.4%)"}
    ]}
  ]
}
